Measured values from patent US8034811B2, “Hydroxamic acid esters and pharmaceutical use thereof” (Leo Pharma A/S, priority 2003, dated 2011).

Target: T1, human intracellular domain of KDR (VEGF Receptor-2) (Homo sapiens, UniProt P35968)
T1 construct: A fusion protein containing the intracellular domain (amino acids 793 to 1357) of the KDR and N-terminally tagged to GST; made in house; host or cells: Sf9 insect cells (baculovirus, pDEST20) for GST-KDR-cyt; E. coli BL21 (pGEX-4T-1) for GST-PLCγ
Test: In vitro KDR kinase assay
Format: biochemical
Details: IC50 as molar concentration; GST-KDR-cyt, substrate phospholipase Cγ, ATP 100 μM, 30 min room temperature, time-resolved fluorometry
Method: The intracellular domain of the KDR receptor was used in the in vitro KDR assay. This domain contains the tyrosine kinase domain of KDR, and when expressed in Sf9 cells, this domain is constitutively active i.e. the kinase domain is phosphorylated on tyrosine residues.
The compounds to be tested were dissolved in DMSO at 10 mM, stored at −20° C. and protected from light. The maximum concentration of DMSO in the in vitro assay was 0.1%. Control samples received the same concentration of solvent as the samples treated with the test compounds.
For the kinase assays, black 96 wells MaxiSorp microtiter plates were coated by an overnight incubation with 100 μl/well of a 2.5 μg/ml solution of phospholipase Cγ in TBS buffer (40 mM Tris-HCl, pH 7.4, 20 mM Mg(C2H3O2)2, 0.02% NaN3) at 4° C. The plates were washed 3 times with TBS buffer containing 0.1% Tween-20, and the residual binding sites were masked by incubation with 1% BSA in TBS buffer containing 0.1% Tween-20 for 1 h. The plates were washed again and the test compounds were added at final concentrations up to 10 μM, together with ATP at the final concentration of 100 μM in 50 μl TBS buffer/well. Then, 50 μl of the human intracellular domain of KDR (VEGF Receptor-2) finally diluted 3000-3500 fold were added and were incubated for 30 min at room temperature. The plates were washed and 100 μl of the Europium labelled PY-20 anti-phosphotyrosine antibody (Wallac, FIN) were incubated in each well at the concentration of approximately 114 ng/ml for 2 h. Then, the plates were washed and 100 μl of enhancer solution (Wallac, FIN) were incubated in each well for 5 min in the dark. The plates were read in a Victor 1420 multilabel counter, using a Europium protocol for time-resolved fluorometry (Wallac, FIN): excitation 340 nm, emission 615 nm, sample pulse cycle 400 μs. Fluorescence was measured for 400 μs between flashes after a delay time of 400 μs. The background measured in the absence of enzyme was subtracted from all samples. The molar concentrations that inhibited 50% of the maximal enzymatic activity (IC50) were calculated from the dose-response curve, by fitting a straight line between the two concentrations immediately above and below the 50% inhibition point (i.e. by solving the equation y=a+bx).

T1 sequence (P35968 794-1356 limits assumed): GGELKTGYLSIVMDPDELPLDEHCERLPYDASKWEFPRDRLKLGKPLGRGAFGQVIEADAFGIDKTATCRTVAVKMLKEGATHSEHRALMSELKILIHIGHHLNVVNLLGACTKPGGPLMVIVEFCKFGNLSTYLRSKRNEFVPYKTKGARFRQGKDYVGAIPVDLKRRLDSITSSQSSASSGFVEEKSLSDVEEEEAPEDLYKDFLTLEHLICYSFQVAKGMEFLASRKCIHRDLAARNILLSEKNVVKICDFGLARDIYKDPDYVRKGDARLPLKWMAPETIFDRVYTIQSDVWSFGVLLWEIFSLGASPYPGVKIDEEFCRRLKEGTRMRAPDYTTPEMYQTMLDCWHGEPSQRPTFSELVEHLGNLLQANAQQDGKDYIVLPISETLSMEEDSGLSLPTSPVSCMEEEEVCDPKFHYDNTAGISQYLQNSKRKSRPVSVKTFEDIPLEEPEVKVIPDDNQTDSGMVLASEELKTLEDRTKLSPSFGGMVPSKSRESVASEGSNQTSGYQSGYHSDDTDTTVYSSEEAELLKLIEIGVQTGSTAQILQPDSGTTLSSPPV

Row | SMILES | IC50 [nM]
1 | O=C(NOCc1cccc(Cl)c1Cl)c1ccccc1NCc1ccncc1 [Compound 18, N-(2,3-Dichloro-benzyloxy)-2-[(pyridin-4-ylmethyl)-amino]-benzamide] | 20
2 | O=C(NOCc1cc(Cl)ccc1Cl)c1ccccc1NCc1ccncc1 [Compound 19, N-(2,5-Dichloro-benzyloxy)-2-[(pyridin-4-ylmethyl)-amino]-benzamide] | 63.1
3 | O=C(NOCc1ccccc1F)c1ccccc1NCc1ccncc1 [Compound 20, N-(2-Fluoro-benzyloxy)-2-[(pyridin-4-ylmethyl)-amino]-benzamide] | 31.6
4 | O=C(NOCc1cccc(F)c1)c1ccccc1NCc1ccncc1 [Compound 21, N-(3-Fluoro-benzyloxy)-2-[(pyridin-4-ylmethyl)-amino]-benzamide] | 25.1
5 | O=C(NOCc1ccc(F)cc1)c1ccccc1NCc1ccncc1 [Compound 22, N-(4-Fluoro-benzyloxy)-2-[(pyridin-4-ylmethyl)-amino]-benzamide] | 25.1
6 | O=C(NOCc1c(F)cccc1Cl)c1ccccc1NCc1ccncc1 [Compound 23, N-(2-Chloro-6-fluoro-benzyloxy)-2-[(pyridin-4-ylmethyl)-amino]-benzamide] | 25.1
7 | O=C(NOCc1ccc(F)cc1Cl)c1ccccc1NCc1ccncc1 [Compound 24, N-(2-Chloro-4-fluoro-benzyloxy)-2-[(pyridin-4-ylmethyl)-amino]-benzamide] | 20
8 | O=C(NOCc1cccc(Cl)c1F)c1ccccc1NCc1ccncc1 [Compound 25, N-(3-Chloro-2-fluoro-benzyloxy)-2-[(pyridin-4-ylmethyl)-amino]-benzamide] | 50.1
9 | COC(=O)c1ccc(CONC(=O)c2ccccc2NCc2ccncc2)cc1 [Compound 26, 4-{2-[(pyridin-4-ylmethyl)-amino]-benzoylaminooxymethyl}-benzoic acid methyl ester] | 79.4
10 | N#Cc1ccc(CONC(=O)c2ccccc2NCc2ccncc2)cc1 [Compound 27, N-(4-cyano-benzyloxy)-2-[(pyridin-4-ylmethyl)-amino]-benzamide] | 12.6
11 | O=C(NOCc1ccc2ccccc2n1)c1ccccc1NCc1ccncc1 [Compound 28, 2-[(Pyridin-4-ylmethyl)-amino]-N-(quinolin-2-ylmethoxy)-benzamide] | 100
12 | O=C(NOc1ccccc1)c1ccccc1NCc1ccncc1 [Compound 29, N-Phenoxy-2-[(pyridin-4-ylmethyl)-amino]-benzamide] | 126
13 | O=C(NOCCOc1ccccc1)c1ccccc1NCc1ccncc1 [Compound 30, N-(2-Phenoxy-ethoxy)-2-[(pyridin-4-ylmethyl)-amino]-benzamide] | 1000
14 | O=C(NOCCCc1ccccc1)c1ccccc1NCc1ccncc1 [Compound 31, N-(3-Phenyl-propoxy)-2-[(pyridin-4-ylmethyl)-amino]-benzamide] | 126
15 | Cc1nc(CONC(=O)c2ccccc2NCc2ccncc2)cs1 [Compound 32, N-(2-methyl-thiazol-4 ylmethoxy)-2-[(pyridin-4-ylmethyl)-amino]-benzamide] | 20
16 | O=C(NOCc1ccccc1)c1cccnc1NCc1ccncc1 [Compound 33, N-Benzyloxy-2-2-[(pyridin-4-ylmethyl)-amino]-nicotinamide] | 100
17 | COc1ccc(CONC(=O)c2cccnc2NCc2ccc(F)cc2)cc1 [Compound 34, 2-(4-Fluoro-benzylamino)-N-(4-methoxy-benzyloxy)-nicotinamide] | 794
18 | COc1ccc(CNc2ncccc2C(=O)NOCc2ccc(OC)cc2)cc1 [Compound 35, 2-(4-Methoxy-benzylamino)-N-(4-methoxy-benzyloxy)-nicotinamide] | 1000
19 | Cc1cc(F)cc(C)c1CONC(=O)c1ccccc1NCc1ccncc1 [Compound 38, N-(4-Fluoro-2,6-dimethyl-benzyloxy)-2-[(pyridin-4-ylmethyl)-amino]-benzamide] | 10
20 | COc1cc(F)ccc1CONC(=O)c1ccccc1NCc1ccncc1 [Compound 39, N-(4-Fluoro-2-methoxy-benzyloxy)-2-[(pyridin-4-ylmethyl)-amino]-benzamide] | 6.31

Row | SMILES | IC50 [nM]
21 | Cc1ccc(CONC(=O)c2ccccc2NCc2ccncc2)c(F)c1F [Compound 40, N-(2,3-Difluoro-4-methyl-benzyloxy)-2-[(pyridin-4-ylmethyl)-amino]-benzamide] | 10
22 | Cc1ccc(CONC(=O)c2ccccc2NCc2ccncc2)cc1F [Compound 41, N-(3-Fluoro-4-methyl-benzyloxy)-2-[(pyridin-4-ylmethyl)-amino]-benzamide] | 20
23 | Cc1ccc(F)cc1CONC(=O)c1ccccc1NCc1ccncc1 [Compound 42, N-(5-Fluoro-2-methyl-benzyloxy)-2-[(pyridin-4-ylmethyl)-amino]-benzamide] | 10
24 | COc1c(F)c(F)c(CONC(=O)c2ccccc2NCc2ccncc2)c(F)c1F [Compound 43, 2-[(Pyridin-4-ylmethyl)-amino]-N-(2,3,5,6-tetrafluoro-4-methoxy-benzyloxy)benzamide] | 20
25 | O=C(NOCc1ccc(Br)cc1)c1ccccc1NCc1ccncc1 [Compound 44, N-(4-Bromo-benzyloxy)-2-[(pyridin-4-ylmethyl)-amino]-benzamide] | 50.1
26 | O=C(NOCc1ccccc1I)c1ccccc1NCc1ccncc1 [Compound 45, N-(2-Iodo-benzyloxy)-2-[(pyridin-4-ylmethyl)-amino]-benzamide] | 31.6
27 | O=C(NOCc1cccc(I)c1)c1ccccc1NCc1ccncc1 [Compound 46, N-(3-Iodo-benzyloxy)-2-[(pyridin-4-ylmethyl)-amino]-benzamide] | 63.1
28 | Cc1ccc(CONC(=O)c2ccccc2NCc2ccncc2)cc1 [Compound 47, N-(4-Methyl-benzyloxy)-2-[(pyridin-4-ylmethyl)-amino]-benzamide] | 15.8
29 | O=C(NOCc1cccc(C#CCO)c1)c1ccccc1NCc1ccncc1 [Compound 50, N-[3-(3-Hydroxy-prop-1-ynyl)-benzyloxy]-2-[(pyridin-4-ylmethyl)-amino]-benzamide] | 63.1
30 | O=C(NOCc1ccccc1C#CCO)c1ccccc1NCc1ccncc1 [Compound 52, N-[2-(3-Hydroxy-prop-1-ynyl)-benzyloxy]-2-[(pyridin-4-ylmethyl)-amino]-benzamide] | 63.1
31 | N#CCc1ccccc1CONC(=O)c1ccccc1NCc1ccncc1 [Compound 56, N-(2-Cyanomethyl-benzyloxy)-2-[(pyridin-4-ylmethyl)-amino]-benzamide] | 50.1
32 | O=C(NOCc1ccc(CO)cc1)c1ccccc1NCc1ccncc1 [Compound 58, N-(4-Hydroxymethyl-benzyloxy)-2-[(pyridin-4-ylmethyl)-amino]-benzamide] | 63.1
33 | O=C(NOCc1ccc(F)cc1C(F)(F)F)c1ccccc1NCc1ccncc1 [Compound 59, N-(4-Fluoro-2-trifluoromethyl-benzyloxy)-2-[(pyridin-4-ylmethyl)-amino]-benzamide] | 31.6
34 | O=C(NOCc1c(F)cccc1C(F)(F)F)c1ccccc1NCc1ccncc1 [Compound 60, N-(2-Fluoro-6-trifluoromethyl-benzyloxy)-2-[(pyridin-4-ylmethyl)-amino]-benzamide] | 20
35 | O=C(NOCc1ccc(F)c(C(F)(F)F)c1)c1ccccc1NCc1ccncc1 [Compound 61, N-(4-Fluoro-3-trifluoromethyl-benzyloxy)-2-[(pyridin-4-ylmethyl)-amino]-benzamide] | 15.8
36 | Cc1ccc(CONC(=O)c2ccccc2NCc2ccncc2)cc1C(F)(F)F [Compound 62, N-(4-Methyl-3-trifluoromethyl-benzyloxy)-2-[(pyridin-4-ylmethyl)-amino]-benzamide] | 63.1
37 | COc1ccc(CONC(=O)c2ccccc2NCc2ccncc2)cc1C(F)(F)F [Compound 63, N-(4-Methoxy-3-trifluoromethyl-benzyloxy)-2-[(pyridin-4-ylmethyl)-amino]-benzamide] | 63.1
38 | COc1ccccc1CONC(=O)c1ccccc1NCc1ccncc1 [Compound 64, N-(2-Methoxy-benzyloxy)-2-[(pyridin-4-ylmethyl)-amino]-benzamide] | 50.1
39 | O=C(NOCc1ccccc1OC(F)(F)F)c1ccccc1NCc1ccncc1 [Compound 66, 2-[(Pyridin-4-ylmethyl)-amino]-N-(2-trifluoromethoxy-benzyloxy)-benzamide] | 63.1
